What was measured:
Format in all cases: in vivo
[1] = test system: Zea mays (ZEAMX); test: Pre-emergence herbicidal test; conditions: 1000 g/ha, evaluated after 13 days
[2] = test system: Amaranthus retoflexus (AMARE); test: Pre-emergence herbicidal test; conditions: 1000 g/ha, evaluated after 13 days
[3] = test system: Echinochloa crus-galli (ECHCG); test: Pre-emergence herbicidal test; conditions: 1000 g/ha, evaluated after 13 days
[4] = test system: Setaria faberi (SETFA); test: Pre-emergence herbicidal test; conditions: 1000 g/ha, evaluated after 13 days
[5] = test system: Abutilon theophrasti (ABUTH); test: Pre-emergence herbicidal test; conditions: 1000 g/ha, evaluated after 13 days
[6] = test system: Echinochloa crus-galli (ECHCG); test: Post-emergence herbicidal test; conditions: 1000 g/ha unless otherwise stated, evaluated after 13 days
Method in brief: (§1)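 Spray-applied at 1000 g/ha unless stated, in the glasshouse. Damage rated 13 days later on a 0–5 scale.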

[7] = test system: Setaria faberi (SETFA); test: Post-emergence herbicidal test; conditions: 1000 g/ha unless otherwise stated, evaluated after 13 days
Method in brief: as §1

[8] = test system: Zea mays (ZEAMX); test: Post-emergence herbicidal test; conditions: 1000 g/ha unless otherwise stated, evaluated after 13 days
Method in brief: as §1

[9] = test system: Amaranthus retoflexus (AMARE); test: Post-emergence herbicidal test; conditions: 1000 g/ha unless otherwise stated, evaluated after 13 days
Method in brief: as §1

[10] = test system: Abutilon theophrasti (ABUTH); test: Post-emergence herbicidal test; conditions: 1000 g/ha unless otherwise stated, evaluated after 13 days
Method in brief: as §1

[11] = test system: Ipomoea hederacea (IPOHE); test: Post-emergence herbicidal test; conditions: 1000 g/ha unless otherwise stated, evaluated after 13 days
Method in brief: as §1

[12] = test system: Ipomoea hederacea (IPOHE); test: Pre-emergence herbicidal test; conditions: 1000 g/ha, evaluated after 13 days

| SMILES | percentage damage caused to the plant, five-point scale, ZEAMX [1] | percentage damage caused to the plant, five-point scale, AMARE [2] | percentage damage caused to the plant, five-point scale, ECHCG [3] | percentage damage caused to the plant, five-point scale, SETFA [4] | percentage damage caused to the plant, five-point scale, ABUTH [5] | percentage damage caused to the plant, ECHCG (five-point scale) [6] | percentage damage caused to the plant, SETFA (five-point scale) [7] | percentage damage caused to the plant, ZEAMX (five-point scale) [8] | percentage damage caused to the plant, AMARE (five-point scale) [9] | percentage damage caused to the plant, ABUTH (five-point scale) [10] | percentage damage caused to the plant, IPOHE (five-point scale) [11] | percentage damage caused to the plant, five-point scale, IPOHE [12] |
| --- | --- | --- | --- | --- | --- | --- | --- | --- | --- | --- | --- | --- |
| CCOC(=O)c1nn(-c2ccc(OC(F)(F)F)cc2)c2ccc(Br)c(S(C)(=O)=O)c2c1=O [Compound P10, ethyl 6-bromo-5-methysulfonyl-4-oxo-1-[4-(trifluoromethoxy)phenyl]cinnoline-3-carboxylate] | 0 (0=0%) | 1 (1=10-20%) | 0 (0=0%) | 1 (1=10-20%) | 1 (1=10-20%) | 1 (1=10-20%) | 1 (1=10-20%) | 1 (1=10-20%) | 1 (1=10-20%) | 1 (1=10-20%) | 0 (0=0%) | 0 (0=0%) |
| O=C(O)c1nn(-c2ccc(OC(F)(F)F)cc2)c2cccc(S(=O)(=O)C3CC3)c2c1=O [Compound P29, 5-cyclopropylsulfonyl-4-oxo-1-[4-(trifluoromethoxy)phenyl]cinnoline-3-carboxylic acid] | 0 (0=0%) | 0 (0=0%) | 0 (0=0%) | 0 (0=0%) | 0 (0=0%) | 0 (0=0%) | 0 (0=0%) | 0 (0=0%) | 0 (0=0%) | 0 (0=0%) | 0 (0=0%) | 0 (0=0%) |
| CCCCCCCOC(=O)c1nn(-c2ccc(OC(F)(F)F)cc2)c2cccc(S(C)(=O)=O)c2c1=O [Compound P77, heptyl 5-methylsulfonyl-4-oxo-1-[4-(trifluoromethoxy)phenyl]cinnoline-3-carboxylate] | 0 (0=0%) | 0 (0=0%) | 3 (3=41-60%) | 5 (5=81-100%) | 0 (0=0%) | 3 (3=41-60%) | 4 (4=61-80%) | 0 (0=0%) | 0 (0=0%) | 1 (1=10-20%) | 0 (0=0%) | 0 (0=0%) |
| C#CCCOC(=O)c1nn(-c2ccc(OC(F)(F)F)cc2)c2cccc(S(C)(=O)=O)c2c1=O [Compound P71, but-3-ynyl 5-methylsulfonyl-4-oxo-1-[4-(trifluoromethoxy)phenyl]cinnoline-3-carboxylate] | 0 (0=0%) | 0 (0=0%) | 4 (4=61-80%) | 5 (5=81-100%) | 0 (0=0%) | 3 (3=41-60%) | 3 (3=41-60%) | 1 (1=10-20%) | 0 (0=0%) | 0 (0=0%) | 1 (1=10-20%) | 0 (0=0%) |
